Where “and” joins values, the source holds several entries; their conditions need not be identical. Equal values may be shown once. Read-outs that look alike come from different tables or passages of the source. Square brackets hold non-standard residues; d marks the D form. Peptide text beside a SMILES is read from it. * marks the point of attachment. Cit = NC(=O)NCCC[C@H](N)C(=O)O; CH2Cl = ClC*
Legend:
M^Pro = M^Pro (Severe acute respiratory syndrome coronavirus 2, UniProt P0DTD1); assay type: biochemical; details: for fold less potent M^Pro inhibitor than alkyne parent: probes lacking the alkyne versus their parents; for Ki: read-out: M^Pro Ki(app), apparent; for M^Pro kinact/KI: second-order rate constant for enzyme inactivation
PL^Pro = PL^Pro (Severe acute respiratory syndrome coronavirus 2, UniProt P0DTD1); details: read-out: PL^Pro IC50
SARS-CoV2 [1] = assay type: cell-based; details: for EC50: read-out: EC50 for the inhibition of SARS-CoV-2 infection
Cathepsin L = Cathepsin L (Homo sapiens, UniProt P07711); test: Cathepsin L inhibition; assay type: biochemical; details: for IC50: read-out: Cathepsin L IC50
Cathepsin B = Cathepsin B (Homo sapiens, UniProt P07858); test: Cathepsin B inhibition; assay type: biochemical; details: read-out: Cathepsin B IC50
SARS-CoV2 pseudovirus = assay type: cell-based
SARS-CoV-2 = assay type: cell-based; details: relative to the DMSO control
[2] = Pharmacokinetics in BALB-6c mice; details: for adverse events or signs of toxicity: at the tested doses
OC-43 = test: Inhibition of OC-43 in A549-hACE2 cells; assay type: cell-based; details: to a lesser extent than SARS-CoV2
SARS-CoV2 [3] = assay type: in vivo, K18-hACE2 transgenic mice; details: for SARS-CoV2-induced weight loss and lethality: intranasal, 10 mg/kg once daily for 3 days starting 2 h prior to infection; for lung histopathology: intraperitoneal treatment for 5 days; for SARS-CoV-2-induced weight loss and lethality: intraperitoneal, 25 mg/kg twice daily for 5 days, post-infection; for viral RNA loads and titers in lung tissue: versus vehicle control, 72 h treatment
[4] = Weight loss in mock infected mice; details: mouse, in vivo
CatL = CatL (Homo sapiens, UniProt P07711); details: SM144 5 μM, 24 h, live A549-hACE2 cells
SARS-CoV2 [5] = assay type: cell-based; details: Huh7.5 cells, 2 μM, 24 h, MOI 0.05
Cytotoxicity = assay type: cell-based

Cathepsin L, sequence (P07711 114-333): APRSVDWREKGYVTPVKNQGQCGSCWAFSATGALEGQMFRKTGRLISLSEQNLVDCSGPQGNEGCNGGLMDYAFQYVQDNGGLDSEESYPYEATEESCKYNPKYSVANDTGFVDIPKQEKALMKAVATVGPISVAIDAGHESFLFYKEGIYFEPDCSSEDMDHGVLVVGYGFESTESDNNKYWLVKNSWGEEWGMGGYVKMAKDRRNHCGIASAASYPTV
CatL, sequence (P07711 114-333): as above

SMILES: NC(=O)NCCC[C@H](NC(=O)[C@H](Cc1ccccc1)NC(=O)[C@H](N)Cc1ccccc1)C(=O)CCl [D-FFCit-CMK] (H-[dF]-Phe-[Cit]-CH2Cl)
- fold less potent M^Pro inhibitor than alkyne parent (M^Pro): 4–5 fold
- IC50 (PL^Pro): > 50 µM

SMILES: C#CCOCCC(=O)NC(Cc1ccccc1)C(=O)NC(Cc1ccccc1)C(=O)NC(C=CC(=O)OCC)CC1CCNC1=O (stereo not drawn) [SM145]
- antiviral activity compared with SM141 and SM142 (SARS-CoV2 [1]): significantly lower antiviral activity
- Ki (M^Pro): 5.3 ± 0.4 µM
- Cathepsin L kinact/KI (Cathepsin L): (2.5 ± 0.01)×10^4 M^−1min^−1
- IC50 (Cathepsin L): 0.2 ± 0.004 µM
- IC50 (Cathepsin B): > 50 µM
- IC50 (PL^Pro): > 50 µM

SMILES: CCOC(=O)C=CC(CC1CCNC1=O)NC(=O)C(Cc1ccccc1)NC(=O)C(Cc1ccc(F)cc1)NC(=O)OC(C)(C)C (stereo not drawn) [SM142]
- fold by which the antiviral EC50 is lower than potency for M^Pro inhibition (SARS-CoV2 [1]): more than 100 fold
- EC50 (SARS-CoV2 [1]; A549-hACE2 cells): 0.0147 µM
- Ki (M^Pro): 10 ± 1 µM
- M^Pro kinact/KI (M^Pro): (1.1 ± 0.3)×10^4 M^−1min^−1
- additional inhibition of pseudovirus entry in CatL knockdown cells (SARS-CoV2 pseudovirus): did not show any significant additional inhibitory activity
- inhibition of live virus infection in CatL knockdown cells (SARS-CoV-2): do inhibit live virus infection
- Cathepsin L kinact/KI (Cathepsin L): (1.1 ± 0.01)×10^5 M^−1min^−1
- IC50 (Cathepsin L): 0.145 ± 0.014 µM
- IC50 (Cathepsin B): 40 ± 9 µM
- AUCINF_obs ([2]; IV): 18490 ng·min/mL
- AUClast ([2]; IV): 0.4 µM·h
- CI_Obs ([2]; IV): 169 mL/min/kg
- Cmax ([2]; IV): 400 nM
- MRTINF_obs ([2]; IV): 114 min
- T1/2 ([2]; IV): 126 min
- Tmax ([2]; IV): 4.8 min
- VSS_obs ([2]; IV): 13.2 L/kg
- % Bioavailability ([2]; PO): 38% and 37.5%
- AUCINF_obs ([2]; PO): 20843 ng·min/mL
- AUClast ([2]; PO): 0.5 µM·h
- Cmax ([2]; PO): 600 nM
- T1/2 ([2]; PO): 126 min
- Tmax ([2]; PO): 4.8 min
- adverse events or signs of toxicity [2]: no adverse events or signs of toxicity were observed
- volume of distribution ([2]; calculated): 13 L/kg
- inhibition of OC-43 (OC-43): inhibits OC-43
- SARS-CoV2-induced weight loss and lethality (SARS-CoV2 [3]): protects mice from SARS-CoV2-induced weight loss and lethality
- lung histopathology (SARS-CoV2 [3]): significant reduction in lung inflammation and improved overall lung pathology
- SARS-CoV-2-induced weight loss and lethality (SARS-CoV2 [3]): protects K18-ACE2 mice from SARS-CoV-2-induced weight loss and lethality
- viral RNA loads and titers in lung tissue (SARS-CoV2 [3]): remarkably lower
- IC50 (PL^Pro): > 50 µM
- weight loss in mock infected mice [4]: no significant weight loss

SMILES: C#CCOCCC(=O)NC(Cc1ccc(F)cc1)C(=O)NC(Cc1ccccc1)C(=O)NC(C=CC(=O)OCC)CC1CCNC1=O (stereo not drawn) [SM144]
- antiviral activity compared with SM141 and SM142 (SARS-CoV2 [1]): significantly lower antiviral activity
- Ki (M^Pro): 4.5 ± 0.5 µM
- M^Pro kinact/KI (M^Pro): (3.4 ± 0.1)×10^4 M^−1min^−1
- enrichment of CatL (CatL): > 128 fold
- Cathepsin L kinact/KI (Cathepsin L): (6 ± 0.2)×10^4 M^−1min^−1
- IC50 (Cathepsin L): 0.22 ± 0.026 µM
- IC50 (Cathepsin B): > 50 µM
- IC50 (PL^Pro): > 50 µM

SMILES: CCOC(=O)C=CC(CC1CCNC1=O)NC(=O)C(Cc1ccccc1)NC(=O)C(Cc1ccccc1)NC(=O)OC(C)(C)C (stereo not drawn) [SM140]
- Ki (M^Pro): 16 ± 2 µM
- M^Pro kinact/KI (M^Pro): (9.0 ± 0.2)×10^3 M^−1min^−1
- IC50 (Cathepsin B): > 50 µM
- IC50 (PL^Pro): > 50 µM

SMILES: N=C(N)NCCC[C@H](NC(=O)[C@H](Cc1ccccc1)NC(=O)[C@H](N)Cc1ccccc1)C(=O)CCl [D-FFR-CMK] (H-[dF]-Phe-Arg-CH2Cl)
- fold less potent M^Pro inhibitor than alkyne parent (M^Pro): 4–5 fold
- IC50 (PL^Pro): 5 ± 0.3 µM

SMILES: CCOC(=O)C=CC(CC1CCNC1=O)NC(=O)C(Cc1ccc(F)cc1)NC(=O)C(Cc1ccccc1)NC(=O)OC(C)(C)C (stereo not drawn) [SM136]
- Ki (M^Pro): 73 ± 4 µM
- M^Pro kinact/KI (M^Pro): (7.7 ± 0.3)×10^2 M^−1min^−1

SMILES: CCOC(=O)C=CC(CC1CCNC1=O)NC(=O)C(Cc1ccc(F)cc1)NC(=O)C(N)Cc1ccccc1 (stereo not drawn) [SM137]
- Ki (M^Pro): 50 ± 6 µM
- M^Pro kinact/KI (M^Pro): (1.8 ± 0.2)×10^3 M^−1min^−1

SMILES: CCOC(=O)C=CC(CC1CCNC1=O)NC(=O)C(Cc1ccccc1)NC(=O)C(N)Cc1ccccc1 (stereo not drawn) [SM141]
- fold by which the antiviral EC50 is lower than potency for M^Pro inhibition (SARS-CoV2 [1]): more than 100 fold
- antiviral activity (SARS-CoV2 [1]; A549-hACE2 cells, 2 μM, 24 h, MOI 0.05): almost completely blocks viral infection
- EC50 (SARS-CoV2 [1]; A549-hACE2 cells): 0.0082 µM
- EC90 (SARS-CoV2 [1]; read-out: EC90 for the inhibition of SARS-CoV-2 infection, A549-hACE2 cells): 0.0221 µM
- Ki (M^Pro): 9 ± 1 µM
- M^Pro kinact/KI (M^Pro): (2.0 ± 0.2)×10^4 M^−1min^−1
- additional inhibition of pseudovirus entry in CatL knockdown cells (SARS-CoV2 pseudovirus): did not show any significant additional inhibitory activity
- inhibition of live virus infection in CatL knockdown cells (SARS-CoV-2): do inhibit live virus infection
- Cathepsin L kinact/KI (Cathepsin L): (1.9 ± 0.5)×10^5 M^−1min^−1
- fold more potent for CatL inhibition than M^Pro (Cathepsin L; from IC50 and kinact/KI values): 10 fold
- IC50 (Cathepsin L): 0.06 ± 0.001 µM
- antiviral activity (SARS-CoV2 [5]): almost completely blocks viral infection
- IC50 (Cathepsin B): > 50 µM
- % Bioavailability ([2]; IP): 35.2%
- AUCINF_obs ([2]; IP): 49620 ng·min/mL
- AUClast ([2]; IP): 1.6 µM·h
- Cmax ([2]; IP): 2700 nM
- T1/2 ([2]; IP): 48 min
- Tmax ([2]; IP): 8.4 min
- AUCINF_obs ([2]; IV): 42350 ng·min/mL
- AUClast ([2]; IV): 1.3 µM·h
- CI_Obs ([2]; IV): 71.5 mL/min/kg
- Cmax ([2]; IV): 3900 nM
- MRTINF_obs ([2]; IV): 24 min
- T1/2 ([2]; IV): 48 min
- Tmax ([2]; IV): 4.8 min
- VSS_obs ([2]; IV): 1.6 L/kg
- % Bioavailability ([2]; PO): 5%
- AUCINF_obs ([2]; PO): 7325 ng·min/mL
- AUClast ([2]; PO): 0.14 µM·h
- Cmax ([2]; PO): 200 nM
- Tmax ([2]; PO): 48 min
- adverse events or signs of toxicity [2]: no adverse events or signs of toxicity were observed
- inhibition of OC-43 (OC-43): inhibits OC-43
- concentration up to which no notable cytotoxicity is caused (Cytotoxicity): 50000 nM
- SARS-CoV2-induced weight loss and lethality (SARS-CoV2 [3]): protects mice from SARS-CoV2-induced weight loss and lethality
- lung histopathology (SARS-CoV2 [3]): significant reduction in lung inflammation and improved overall lung pathology
- SARS-CoV-2-induced weight loss and lethality (SARS-CoV2 [3]): protects K18-ACE2 mice from SARS-CoV-2-induced weight loss and lethality
- viral RNA loads and titers in lung tissue (SARS-CoV2 [3]): remarkably lower
- IC50 (PL^Pro): > 50 µM
- weight loss in mock infected mice [4]: no significant weight loss
